Laboratory results published in patent publication US9113629B2, “4-amino-6-(4-substituted-phenyl)-picolinates and 6-amino-2-(4-substituted-phenyl)-pyrimidine-4-carboxylates and their use as herbicides” (DOW AGROSCIENCES LLC, priority 2013, dated 2015).

Key:
Assay in all cases: Post-emergent Test III, herbicidal activity in wheat and barley
Type in all cases: in vivo
[1] = system: VIOSS: wild pansy (Viola tricolor), field violet (Viola arvensis); conditions: Post-emergent Test III; for GR50 VIOSS: dose for 50% growth reduction; for GR80 VIOSS: dose for 80% growth reduction
Procedure, shortened: (§1)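 GR20, GR50, GR80 and GR90 come from probit analysis of visual injury scores (0 = none, 100 = complete kill) taken 21 d after treatment. Foliar application was by track sprayer delivering 187 L/ha at five rates, from high down to 1/16×, onto greenhouse plants at the 2–3 leaf stage, with solvent-blank controls.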

[2] = system: SASKR: Russian thistle (Salsola iberica); conditions: Post-emergent Test III; for GR50 SASKR: dose for 50% growth reduction; for GR80 SASKR: dose for 80% growth reduction
Procedure, shortened: as §1

[3] = system: KCHSC: kochia (Kochia scoparia); conditions: Post-emergent Test III; for pest or weed control at 35 g/ha / pest or weed control at 70 g/ha: Bassia scoparia, post-emergence, 504 h, read-out: Visual Growth Reduction (%) 21 Days After Application, KCHSC; for pest or weed control at 35 g/ha: 35 g ai/ha; for pest or weed control at 70 g/ha: 70 g ai/ha; for GR50 KCHSC: dose for 50% growth reduction; for GR80 KCHSC: dose for 80% growth reduction
Procedure, shortened: as §1

[4] = system: MATSS: scented mayweed (Matricaria chamomilla), pineappleweed (Matricaria matricarioides); conditions: Post-emergent Test III; for pest or weed control at 35 g/ha / pest or weed control at 70 g/ha: Matricaria chamomilla, post-emergence, 504 h, read-out: Visual Growth Reduction (%) 21 Days After Application, MATSS; for pest or weed control at 35 g/ha: 35 g ai/ha; for pest or weed control at 70 g/ha: 70 g ai/ha; for GR50 MATSS: dose for 50% growth reduction; for GR80 MATSS: dose for 80% growth reduction
Procedure, shortened: as §1

[5] = system: TRZSS: wheat, including spring and winter (Triticum aestivum); conditions: Post-emergent Test III; for GR20 TRZSS: 21 days after application, dose for 20% growth reduction, probit analysis
Procedure, shortened: as §1

[6] = system: HORSS: barley, including spring and winter (Hordeum vulgare); conditions: Post-emergent Test III; for GR20 HORSS: 21 days after application, dose for 20% growth reduction, probit analysis
Procedure, shortened: as §1

[7] = 21 days after application, dose for 20% growth reduction, probit analysis
[8] = 21 days after application, probit analysis

Row | Structure (SMILES) | Visual Growth Reduction (%) 21 Days After Application, VIOSS ([1]; 35 g ai/ha) | Visual Growth Reduction (%) 21 Days After Application, VIOSS ([1]; 70 g ai/ha) | GR50 VIOSS [1, 8] | GR80 VIOSS [1, 8] | Visual Growth Reduction (%) 21 Days After Application, SASKR ([2]; 35 g ai/ha) | Visual Growth Reduction (%) 21 Days After Application, SASKR ([2]; 70 g ai/ha) | GR50 SASKR [2, 8] | GR80 SASKR [2, 8] | pest or weed control at 35 g/ha [3] | pest or weed control at 70 g/ha [3] | GR50 KCHSC [3, 8] | GR80 KCHSC [3, 8] | pest or weed control at 35 g/ha [4] | pest or weed control at 70 g/ha [4] | GR50 MATSS [4, 8] | GR80 MATSS [4, 8] | Visual Growth Reduction (%) 21 Days After Application, TRZSS ([5]; 35 g ai/ha) | Visual Growth Reduction (%) 21 Days After Application, TRZSS ([5]; 70 g ai/ha) | GR20 TRZSS [5] | Visual Growth Reduction (%) 21 Days After Application, HORSS ([6]; 35 g ai/ha) | further results
1 | COC(=O)c1nc(-c2ccc(C(F)(F)F)c(F)c2F)c(F)c(N)c1Cl [Compound 149] | F (30-44) | D (60-74) | 44 g ai/ha | >140 g ai/ha | D (60-74) | D (60-74) | 24 g ai/ha | 100 g ai/ha | 30 to 44% | 60 to 74% | 56 g ai/ha | >140 g ai/ha | 45 to 59% | 60 to 74% | 38 g ai/ha | >140 g ai/ha | E (45-59) | C (75-84) | 20 g ai/ha | D (60-74) | GR20, VIOSS [1, 7]: 11 g ai/ha; GR20, SASKR [2, 7]: 6 g ai/ha; GR20, KCHSC [3, 7]: 18 g ai/ha; GR20, MATSS [4, 7]: 9 g ai/ha; Visual Growth Reduction (%) 21 Days After Application, HORSS ([6]; 70 g ai/ha): C (75-84); GR20 HORSS [6]: 21 g ai/ha
2 | COC(=O)c1nc(-c2ccc(C(F)(F)F)c(F)c2)c(F)c(N)c1Cl [Compound 165] | F (30-44) | D (60-74) | 55 g ai/ha | >140 g ai/ha | C (75-84) | B (85-94) | 4 g ai/ha | 46 g ai/ha | 85 to 94% | 85 to 94% | 9 g ai/ha | 30 g ai/ha | 0 to 29% | 45 to 59% | 81 g ai/ha | >140 g ai/ha | D (60-74) | C (75-84) | 8 g ai/ha | C (75-84) | Visual Growth Reduction (%) 21 Days After Application, HORSS ([6]; 70 g ai/ha): B (85-94); GR20 HORSS [6]: 9 g ai/ha
